System: Sheep red cells
Test: inhibition zone assay, lethal concentration on sheep red cells
Assay type: cell-based
Settings: thin agarose plates
Protocol: Thin agar or agarose plates (8.5 cm diameter) were prepared with 6 ml of rich medium containing 100 ug/ml of streptomycin and 2×10^5 viable cells of a test organism resistant to streptomycin. Wells of 3.5 mm diameter were punched in the plates and 3 ul of serially diluted samples were placed in the wells. The diameters of the zones of inhibition around the wells were measured after overnight incubation at 30° or 37° C. For each peptide the squares of the zone diameters were plotted against the logarithm of the concentration, and from the slopes and intercepts the lethal concentrations were calculated as described by Hultmark (1983) EMBO J. 2, 571-76 or Hultmark et al (1982) Eur. J. Biochem. 127 207-217 each of which being incorporated herein by reference.
Lethal Concentrations calculated from inhibition zones on thin agarose
S. aureus Cowan 1; Strep: S. pyogenes; SRC: Sheep red cells.; *all amino

Row | Structure (SMILES) | Lethal Concentrations SRC [µM]
1 | CC[C@H](C)[C@H](NC(=O)CNC(=O)[C@H](CCC(N)=O)NC(=O)CNC(=O)[C@@H](NC(=O)[C@H](CCCCN)NC(=O)[C@H](CCC(=O)O)NC(=O)[C@@H](NC(=O)[C@H](CCCCN)NC(=O)[C@H](CCCCN)NC(=O)[C@H](Cc1ccccc1)NC(=O)[C@H](CC(C)C)NC(=O)[C@H](CCCCN)NC(=O)[C@H](Cc1c[nH]c2ccccc12)NC(=O)[C@@H](N)CCCCN)[C@@H](C)CC)C(C)C)C(=O)NCC(=O)N[C@@H](C)C(=O)N[C@H](C(=O)N[C@@H](CC(C)C)C(=O)N[C@@H](CCCCN)C(=O)N[C@H](C(=O)N[C@@H](CC(C)C)C(=O)N[C@H](C(=O)N[C@H](C(=O)NCC(=O)N[C@@H](CC(C)C)C(N)=O)[C@@H](C)O)[C@@H](C)O)C(C)C)C(C)C [Compound 3] | > 200
2 | CC[C@@H](C)[C@@H](NC(=O)CNC(=O)[C@@H](CCC(N)=O)NC(=O)CNC(=O)[C@H](NC(=O)[C@@H](CCCCN)NC(=O)[C@@H](CCC(=O)O)NC(=O)[C@H](NC(=O)[C@@H](CCCCN)NC(=O)[C@@H](CCCCN)NC(=O)[C@@H](Cc1ccccc1)NC(=O)[C@@H](CC(C)C)NC(=O)[C@@H](CCCCN)NC(=O)[C@@H](Cc1c[nH]c2ccccc12)NC(=O)[C@H](N)CCCCN)[C@H](C)CC)C(C)C)C(=O)NCC(=O)N[C@H](C)C(=O)N[C@@H](C(=O)N[C@H](CC(C)C)C(=O)N[C@H](CCCCN)C(=O)N[C@@H](C(=O)N[C@H](CC(C)C)C(=O)N[C@@H](C(=O)N[C@@H](C(=O)NCC(=O)N[C@H](CC(C)C)C(N)=O)[C@H](C)O)[C@H](C)O)C(C)C)C(C)C [Compound 4] | 500
3 | CC[C@H](C)[C@H](NC(=O)CNC(=O)[C@@H](NC(=O)[C@H](CCCCN)NC(=O)[C@H](CCCCN)NC(=O)[C@H](Cc1ccccc1)NC(=O)[C@H](CC(C)C)NC(=O)[C@H](CCCCN)NC(=O)[C@H](Cc1c[nH]c2ccccc12)NC(=O)[C@@H](N)CCCCN)[C@@H](C)CC)C(=O)NCC(=O)N[C@@H](C)C(=O)N[C@H](C(=O)N[C@@H](CC(C)C)C(=O)N[C@@H](CCCCN)C(=O)N[C@H](C(=O)N[C@@H](CC(C)C)C(=O)N[C@H](C(=O)N[C@H](C(=O)NCC(=O)N[C@@H](CC(C)C)C(=O)N1CCC[C@H]1C(=O)N[C@@H](C)C(=O)N[C@@H](CC(C)C)C(=O)N[C@H](C(=O)N[C@@H](CO)C(N)=O)[C@@H](C)CC)[C@@H](C)O)[C@@H](C)O)C(C)C)C(C)C [Compound 6] | > 600
4 | CC[C@@H](C)[C@@H](NC(=O)CNC(=O)[C@H](NC(=O)[C@@H](CCCCN)NC(=O)[C@@H](CCCCN)NC(=O)[C@@H](Cc1ccccc1)NC(=O)[C@@H](CC(C)C)NC(=O)[C@@H](CCCCN)NC(=O)[C@@H](Cc1c[nH]c2ccccc12)NC(=O)[C@H](N)CCCCN)[C@H](C)CC)C(=O)NCC(=O)N[C@H](C)C(=O)N[C@@H](C(=O)N[C@H](CC(C)C)C(=O)N[C@H](CCCCN)C(=O)N[C@@H](C(=O)N[C@H](CC(C)C)C(=O)N[C@@H](C(=O)N[C@@H](C(=O)NCC(=O)N[C@H](CC(C)C)C(=O)N1CCC[C@@H]1C(=O)N[C@H](C)C(=O)N[C@H](CC(C)C)C(=O)N[C@@H](C(=O)N[C@H](CO)C(N)=O)[C@H](C)CC)[C@H](C)O)[C@H](C)O)C(C)C)C(C)C [Compound 7] | > 400

Source: US5585353A, “Antibiotic peptides containing D-amino acids” (The Rockefeller University, priority 1994, dated 1996)
